# From patent US8815891B2, “Tricyclic derivative or pharmaceutically acceptable salts thereof, preparation method thereof, and pharmaceutical composition containing the same” (Je Il Pharmaceutical Co., Ltd., priority 2008, dated 2014)
# Where a name gives a salt, the structure may show the parent alone.
# Key:
# Format in all cases: cell-based
# PARP-1 enzyme = PARP-1 enzyme (Cricetulus griseus (Chinese hamster) (Cricetulus barabensis griseus), UniProt Q9R152); assay: Intracellular PARP inhibitory activity (NAD(P)H released by MMS-treated CHO-K1 cells)
# PARP-1 enzyme, sequence (Q9R152 whole entry): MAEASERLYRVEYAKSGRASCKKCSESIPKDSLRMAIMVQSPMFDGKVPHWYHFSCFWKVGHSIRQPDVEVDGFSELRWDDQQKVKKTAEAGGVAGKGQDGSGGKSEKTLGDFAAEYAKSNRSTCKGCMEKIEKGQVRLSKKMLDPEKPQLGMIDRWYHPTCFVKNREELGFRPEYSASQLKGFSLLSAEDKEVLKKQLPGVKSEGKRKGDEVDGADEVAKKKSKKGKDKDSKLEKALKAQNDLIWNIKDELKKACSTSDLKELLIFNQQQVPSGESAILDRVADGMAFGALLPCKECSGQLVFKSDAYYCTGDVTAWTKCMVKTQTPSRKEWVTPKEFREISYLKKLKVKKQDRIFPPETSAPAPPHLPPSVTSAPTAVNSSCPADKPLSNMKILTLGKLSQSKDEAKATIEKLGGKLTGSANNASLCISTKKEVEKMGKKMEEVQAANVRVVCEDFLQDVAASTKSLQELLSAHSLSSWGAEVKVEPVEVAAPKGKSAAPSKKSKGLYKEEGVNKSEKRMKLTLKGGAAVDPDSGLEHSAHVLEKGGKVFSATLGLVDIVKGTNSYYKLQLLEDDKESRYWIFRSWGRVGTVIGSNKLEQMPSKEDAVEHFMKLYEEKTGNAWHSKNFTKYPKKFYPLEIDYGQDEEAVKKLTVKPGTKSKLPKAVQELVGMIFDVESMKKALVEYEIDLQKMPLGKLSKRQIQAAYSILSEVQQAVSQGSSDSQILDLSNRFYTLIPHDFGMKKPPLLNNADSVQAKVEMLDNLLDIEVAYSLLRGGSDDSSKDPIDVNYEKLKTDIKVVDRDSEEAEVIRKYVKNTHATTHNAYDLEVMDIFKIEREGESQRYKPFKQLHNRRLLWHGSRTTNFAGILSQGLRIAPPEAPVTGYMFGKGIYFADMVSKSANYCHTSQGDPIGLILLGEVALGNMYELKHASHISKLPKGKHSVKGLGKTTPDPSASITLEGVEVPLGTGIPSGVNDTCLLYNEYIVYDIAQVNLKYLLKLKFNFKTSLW
# A549 cell line = assay: Cell growth inhibition of cancer cell lines (SRB assay), A549
# Method: (§1) The tests on cell growth inhibitory activity were performed with respect to A549 (US, ATCC), SK-OV-3 (Korea Research Institute of Chemical Technology; KRICT), HT-29 (US, ATCC), MCF-7 cell (US, ATCC), using Sulforhodamin-B <SRB> Assay (1989, US National Cancer Institute (NCI)) which was developed to measure the in vitro anti-cancer activity of the drug. […] The samples of the compounds of the Examples according to the present invention were used for the tests, and before the tests, the samples were dissolved in dimethylsulfoxide and diluted with the culture medium (RPMI 1640) to be used. The final concentration of the sample was varied in the range of 0.3˜100 μM. After the culture medium was removed from the 96 well plates, the diluted sample solution was added by 100 μl, and cultured in 37° C., 5% CO2 culture medium for 72 hours. The time zero (Tz) plates were collected at the time point of adding the sample. Upon completing the culture, the medium was removed from each well along with Tz plate, then cold 10% trichloroacetic acid (TCA) was added by 100 μl per well. The wells were left at 4° C. for 1 hour, so that the cells were fixed into the bottom of the plates. After the cells were fixed, the plates were rinsed with water five to six times to remove the remaining trichloroacetic acid solution, and moisture was completely dried at room temperature. The cells were dyed for 30 minutes by adding the dye solution in which 0.4% sulforhodamine-B was dissolved in 1% acetic acid solution, by 100 μl per dried wells. The above was rinsed again with 1% acetic acid solution five to six times to ensure that sulforhodamine-B which had not attached to the cells was removed. The plates were again dried at room temperature. 100 μl of 10 mM tris-buffer was then added to dissolve the dye, and the optical density (OD) at 520 nm was measured with the microplate reader. GI50 of the sample regarding cancer cell was calculated as explained below. Time zero (Tz), control value (C) and test value (T) were obtained, in which Tz corresponds to OD value of time at which the sample is applied and culture is started, C corresponds to OD value of the well which is cultured without treatment with the sample, and T corresponds to OD value of the well which is treated with the sample and then cultured. The degree of cell growth inhibition of the sample was measured using: If […] [Mathematical Formula 1]
# (§2) Further, the ability of Examples 2, 42, 49, 52, 72, 74, 101 to increase growth inhibition effect of temozolomide and SN-38 at 2 μM was determined.
# MCF-7 Cell line = assay: Cell growth inhibition of cancer cell lines (SRB assay), MCF-7
# Method: as §1, §2
# HT-29 Cell line = assay: Cell growth inhibition of cancer cell lines (SRB assay), HT-29
# Method: as §1, §2
smiles,measurement,setting,value
"COc1cc(CN2CCOCC2)cc2[nH]c(=O)c3c(c12)NCCC3 [Example 74, 10-Methoxy-8-(morpholinomethyl)-1,2,3,4-tetrahydrobenzo[h][1,6]naphthyridine-5(6H)-one dihydrochloride]",IC50,PARP-1 enzyme,1.48 µM
same,SN-38 PF50,"A549 cell line; 2 μM compound, GI50 SN-38 alone / GI50 with compound",2.2
same,Temozolomide PF50,"A549 cell line; 2 μM compound, GI50 temozolomide alone / GI50 with compound",3.2
same,GI50,"A549 cell line; Homo sapiens, 72 hours",75 µM
same,SN-38 PF50,MCF-7 Cell line; 2 μM compound,3.0
same,Temozolomide PF50,MCF-7 Cell line; 2 μM compound,6.3
same,GI50,"MCF-7 Cell line; Homo sapiens, MCF7, 72 hours",45 µM
same,SN-38 PF50,HT-29 Cell line; 2 μM compound,3.5
same,Temozolomide PF50,HT-29 Cell line; 2 μM compound,>2.8
same,GI50,"HT-29 Cell line; Homo sapiens, 72 hours",30 µM
